From the supplement of paper PMC10307832

Legend:
Assay in all cases: relative viability (nuclei count vs DMSO), 5 days (fraction); higher = more cells survive
[1] = compound: C/C(=N\NC(=S)N1CCC1)/C2=CC=CC=N2 + CC(=O)Nc1cccc(-n2c(=O)n(C3CC3)c(=O)c3c(Nc4ccc(I)cc4F)n(C)c(=O)c(C)c32)c1 [Trametinib] (partner 0.02 µM)
Outline: (§1)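 After 5 days of treatment, lung cancer cells in 1536-well plates were fixed and stained in a single step (final 0.05% Triton X-100, 1% formaldehyde, 1 ug/ml Hoechst) and their nuclei counted on 4× images. Treatment had been applied by pin tool the day after seeding as one drug alone or as a fixed anchor-drug dose with five library-drug doses (not always all listed) in √10 steps. Relative viability is the nuclei count of treated wells divided by that of vehicle wells, and values are medians of duplicate plates.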

[2] = compound: C/C(=N\NC(=S)N1CCC1)/C2=CC=CC=N2 + COc1cccc2cc(-c3nc([C@H]4CC[C@H](C(=O)O)CC4)n4ncnc(N)c34)[nH]c12 [OSI-027] (partner 0.5 µM)
Outline: as §1

[3] = compound: C/C(=N\NC(=S)N1CCC1)/C2=CC=CC=N2 + CS(=O)(=O)CCNCc1ccc(-c2ccc3ncnc(Nc4ccc(OCc5cccc(F)c5)c(Cl)c4)c3c2)o1 [Lapatinib] (partner 2 µM)
Outline: as §1

[4] = compound: C/C(=N\NC(=S)N1CCC1)/C2=CC=CC=N2 + C[C@]1(O)C[C@@H](c2nc(-c3ccc4ccc(-c5ccccc5)nc4c3)c3c(N)nccn32)C1 [Linsitinib] (partner 1 µM)
Outline: as §1

Row | Cell Line | relative viability ([1]; first compound 0.05 µM) | relative viability ([1]; first compound 0.1581 µM) | relative viability ([1]; first compound 0.5 µM) | relative viability ([1]; first compound 1.581 µM) | relative viability ([1]; first compound 5 µM) | relative viability ([2]; first compound 0.05 µM) | relative viability ([2]; first compound 0.1581 µM) | relative viability ([2]; first compound 0.5 µM) | relative viability ([2]; first compound 1.581 µM) | relative viability ([2]; first compound 5 µM) | relative viability ([3]; first compound 0.05 µM) | relative viability ([3]; first compound 0.1581 µM) | relative viability ([3]; first compound 0.5 µM) | relative viability ([3]; first compound 1.581 µM) | relative viability ([3]; first compound 5 µM) | relative viability ([4]; first compound 0.05 µM) | relative viability ([4]; first compound 0.1581 µM) | relative viability ([4]; first compound 0.5 µM) | relative viability ([4]; first compound 1.581 µM) | relative viability ([4]; first compound 5 µM)
1 | 201T | 0.575 | 0.713 | 0.327 | 0.407 | 0.283 | 0.402 | 0.21 | 0.201 | 0.166 | 0.134 | 0.447 | 0.578 | 0.444 | 0.447 | 0.351 | 0.742 | 1 | 0.564 | 0.503 | 0.41
2 | A549 |  |  |  |  |  |  |  |  |  |  | 0.065 | 0.0607 | 0.0715 | 0.0714 | 0.0609 | 0.083 | 0.0782 | 0.0623 | 0.0706 | 0.053
3 | A-427 | 0.226 | 0.215 | 0.189 | 0.185 | 0.178 | 0.172 | 0.154 | 0.135 | 0.165 | 0.125 | 0.138 | 0.149 | 0.138 | 0.115 | 0.139 | 0.18 | 0.687 | 0.148 | 0.157 | 0.139
4 | ABC-1 |  |  |  |  |  | 0.257 | 0.191 | 0.239 | 0.226 | 0.2 | 0.475 | 0.513 | 0.495 | 0.459 | 0.456 | 0.247 | 0.239 | 0.24 | 0.221 | 0.207
5 | BEN | 0.341 | 0.344 | 0.359 | 0.3 | 0.268 | 0.206 | 0.142 | 0.166 | 0.183 | 0.202 | 0.178 | 0.201 | 0.21 | 0.203 | 0.188 | 0.168 | 0.171 | 0.167 | 0.174 | 0.189
6 | CAL-12T | 0.0974 | 0.126 | 0.163 | 0.135 | 0.122 | 0.133 | 0.126 | 0.145 | 0.105 | 0.147 | 0.259 | 0.214 | 0.2 | 0.182 | 0.187 | 0.167 | 0.165 | 0.13 | 0.16 | 0.142
7 | COR-L23 | 0.111 | 0.133 | 0.124 | 0.107 | 0.114 | 0.116 | 0.111 | 0.108 | 0.0709 | 0.0853 | 0.144 | 0.156 | 0.119 | 0.0787 | 0.101 | 0.129 | 0.11 | 0.106 | 0.0712 | 0.0637
8 | COR-L 105 | 0.376 | 0.462 | 0.377 | 0.343 | 0.339 | 0.251 | 0.329 | 0.338 | 0.255 | 0.248 | 0.375 | 0.342 | 0.375 | 0.314 | 0.286 | 0.343 | 0.265 | 0.265 | 0.332 | 0.261
9 | Calu-6 |  |  |  |  |  |  |  |  |  |  | 0.132 | 0.146 | 0.124 | 0.128 | 0.131 | 0.11 | 0.1 | 0.127 | 0.115 | 0.108
10 | ChaGo-K-1 | 0.147 | 0.391 | 0.15 | 0.133 | 0.152 | 0.15 | 0.168 | 0.177 | 0.163 | 0.165 |  |  |  |  |  |  |  |  |  | 
11 | EBC-1 |  |  |  |  |  |  |  |  |  |  | 0.225 | 0.195 | 0.226 | 0.191 | 0.161 | 0.13 | 0.19 | 0.137 | 0.0985 | 0.11
12 | EKVX | 0.104 | 0.124 | 0.114 | 0.151 | 0.136 | 0.12 | 0.122 | 0.11 | 0.111 | 0.146 | 0.108 | 0.137 | 0.119 | 0.153 | 0.131 | 0.141 | 0.122 | 0.0907 | 0.135 | 0.141
13 | EMC-BAC-2 | 0.293 | 0.282 | 0.246 | 0.2 | 0.231 | 0.199 | 0.22 | 0.233 | 0.189 | 0.209 | 0.113 | 0.169 | 0.178 | 0.173 | 0.153 | 0.365 | 0.56 | 0.144 | 0.178 | 0.191
14 | EPLC-272H | 0.121 | 0.114 | 0.114 | 0.0558 | 0.0892 | 0.159 | 0.13 | 0.138 | 0.103 | 0.112 | 0.139 | 0.195 | 0.229 | 0.155 | 0.161 | 0.16 | 0.424 | 0.173 | 0.149 | 0.16
15 | H3255 | 0.29 | 0.304 | 0.258 | 0.295 | 0.325 | 0.364 | 0.293 | 0.25 | 0.254 | 0.29 | 0.255 | 0.218 | 0.14 | 0.157 | 0.184 | 0.278 | 0.269 | 0.276 | 0.197 | 0.21
16 | HARA | 0.322 | 0.11 | 0.193 | 0.109 | 0.102 | 0.0966 | 0.0611 | 0.0659 | 0.0562 | 0.0621 | 0.102 | 0.115 | 0.155 | 0.0859 | 0.0828 | 0.212 | 0.0896 | 0.163 | 0.109 | 0.08
17 | HCC-15 | 0.151 | 0.23 | 0.117 | 0.0989 | 0.0939 | 0.079 | 0.0907 | 0.0888 | 0.0899 | 0.0898 | 0.082 | 0.078 | 0.0841 | 0.0904 | 0.0765 | 0.237 | 0.416 | 0.103 | 0.102 | 0.0909
18 | HCC-44 | 0.869 | 0.987 | 0.409 | 0.491 | 0.397 | 0.183 | 0.221 | 0.261 | 0.195 | 0.297 | 0.292 | 0.184 | 0.177 | 0.156 | 0.232 | 0.553 | 0.141 | 0.143 | 0.154 | 0.183
